Values quoted from earlier work in patent US5271935A, “Antibiotic, cammunocin, a process for the preparation thereof, and the use thereof as a pharmaceutical” (Hoechst Aktiengesellschaft, priority 1988, dated 1993).

Test system: Gram-positive bacteria
Details: other known antibiotics

## amphomycin
  requirement for calcium ions to show an antibiotic effect: 1.0 mM
